These results are taken from ChEMBL document CHEMBL1121615, “Synthesis and analgesic properties of some conformationally restricted analogues of profadol” (1980).

Common to all, as to assay type: functional
In experiment [1] the test system is Mus musculus. Put plainly: The ED50 value of compound was measured for 50% inhibition for analgesia in mice after oral administration by the hotplate method.
Experiment [2] has as its system Mus musculus. Put plainly: Analgesia was determined by writhing test in mice after 30 mg/kg oral administration; Range is 50-74%.
Experiment [3] deals with Mus musculus. Put plainly: Analgesia was determined by writhing test in mice after 100 mg/kg oral administration; Range is 50-74%.
Experiment [4] has as its system Mus musculus. Put plainly: Analgesia was determined by writhing test in mice after 100 mg/kg oral administration; Range is 75-99%.
The species named for experiment [5] is Mus musculus. Put plainly: animal or person.
Description: The ED50 value of compound was measured for 50% inhibition for analgesia in mice by the hotplate method
Experiment [6] relates to Mus musculus. Put plainly: Analgesia was determined by writhing test in mice after 100 mg/kg oral administration; Range is 25-49%.
Experiment [7] has as its system Mus musculus. Put plainly: Analgesia was determined by writhing test in mice after 30 mg/kg oral administration.
Experiment [8] has as its system Mus musculus. Put plainly: Analgesia was determined by writhing test in mice after 10 mg/kg oral administration.

Each structure is given as a SMILES string.

In the experiment on Mus musculus [1], `COc1ccc2c(c1)C1(CCC2)CCN(C)C1` (stereo not given) came in with an ED50 above 50 mg/kg. The same compound registered an inhibition in vivo at 30 mg/kg in the experiment on Mus musculus [2] of 50%.
Take `COc1ccc2c(c1)CCCC21CCN(C)C1` (stereo not given): in the experiment on Mus musculus [3], at 100 mg/kg the inhibition in vivo was 50%.
`COc1cccc2c1CCCC21CCN(C)C1` (stereo not given) yielded an inhibition in vivo at 100 mg/kg in the experiment on Mus musculus [4] of 75%.
With `COc1cccc2c1CCCC21CCNC1` (stereo not given), it took a dose of 48.6 mg/kg to reach the 50% effect level in the experiment filed under Mus musculus [5] (ED50). 30 mg/kg produced 50% inhibition in vivo in the experiment on Mus musculus [2].
With `Oc1ccc2c(c1)CCCC21CCNC1` (stereo not given), in the experiment with Mus musculus [3], the inhibition in vivo at 100 mg/kg came to 50%.
The same measure, in the same setting: the value for `Oc1ccc2c(c1)C1(CCC2)CCNC1` (stereo not given) was 50%.
Regarding `Br.Oc1cccc2c1CCCC21CCNC1` (stereo not given), the ED50 with Mus musculus [1] was above 50 mg/kg. At 30 mg/kg the inhibition in vivo in the experiment on Mus musculus [2] was 50%.
In turn, `Br.CN1CCC2(CCCc3ccc(O)cc32)C1` (stereo not given) registered an ED50 in the experiment filed under Mus musculus [5] of 42.8 mg/kg. The compound further gave an inhibition in vivo at 30 mg/kg in the experiment with Mus musculus [2] of 50%.
Consider `COc1ccc2c(c1)C1(CCC2)CCNC1` (stereo not given), for which 100 mg/kg produced 25% inhibition in vivo with Mus musculus [6].
On the same count and under the same terms, the value for `CN1CCC2(CCCc3c(O)cccc32)C1` (stereo not given) was 25%.
For `Cl.c1ccc2c(c1)CCCC21CCNC1` (stereo not given), the ED50 in the experiment filed under Mus musculus [5] was 13.3 mg/kg. Moreover, the inhibition in vivo at 30 mg/kg in the experiment on Mus musculus [7] stood at 100%.
In the case of `Br.CN1CCC2(CCCc3cc(O)ccc32)C1` (stereo not given), in the experiment listed under Mus musculus [5], the ED50 is above 50 mg/kg. In the experiment on Mus musculus [2], this compound had an inhibition in vivo at 30 mg/kg of 50%.
In the experiment listed under Mus musculus [5], `CN1CCC2(CCCc3ccccc32)C1.Cl` (stereo not given) registered an ED50 of 12.1 mg/kg. In addition, in the experiment on Mus musculus [7], testing at 30 mg/kg gave an inhibition in vivo of 100%.
In the experiment on Mus musculus [6], `COc1ccc2c(c1)CCCC21CCNC1` (stereo not given) returned an inhibition in vivo at 100 mg/kg of 25%.
`CN1CC[C@]23c4c5ccc(O)c4O[C@H]2[C@@H](O)C=C[C@H]3[C@H]1C5.Cl` [MORPHINE HYDROCHLORIDE] displayed an ED50 in the experiment filed under Mus musculus [5] of 1.2 mg/kg. The same compound gave an inhibition in vivo at 10 mg/kg in the experiment with Mus musculus [8] of 100%.
For `CCCC1(c2cccc(O)c2)CCN(C)C1` (stereo not given) [PROFADOL], the ED50 in the experiment with Mus musculus [1] is 3.9 mg/kg. The inhibition in vivo at 10 mg/kg in the experiment with Mus musculus [8] amounted to 100%.
